For the test, the target named is T1, Androgen Receptor (Homo sapiens, UniProt P10275).
T1 construct: endogenous in cells; host or cells: VCaP cells
T1 sequence (P10275 1-920): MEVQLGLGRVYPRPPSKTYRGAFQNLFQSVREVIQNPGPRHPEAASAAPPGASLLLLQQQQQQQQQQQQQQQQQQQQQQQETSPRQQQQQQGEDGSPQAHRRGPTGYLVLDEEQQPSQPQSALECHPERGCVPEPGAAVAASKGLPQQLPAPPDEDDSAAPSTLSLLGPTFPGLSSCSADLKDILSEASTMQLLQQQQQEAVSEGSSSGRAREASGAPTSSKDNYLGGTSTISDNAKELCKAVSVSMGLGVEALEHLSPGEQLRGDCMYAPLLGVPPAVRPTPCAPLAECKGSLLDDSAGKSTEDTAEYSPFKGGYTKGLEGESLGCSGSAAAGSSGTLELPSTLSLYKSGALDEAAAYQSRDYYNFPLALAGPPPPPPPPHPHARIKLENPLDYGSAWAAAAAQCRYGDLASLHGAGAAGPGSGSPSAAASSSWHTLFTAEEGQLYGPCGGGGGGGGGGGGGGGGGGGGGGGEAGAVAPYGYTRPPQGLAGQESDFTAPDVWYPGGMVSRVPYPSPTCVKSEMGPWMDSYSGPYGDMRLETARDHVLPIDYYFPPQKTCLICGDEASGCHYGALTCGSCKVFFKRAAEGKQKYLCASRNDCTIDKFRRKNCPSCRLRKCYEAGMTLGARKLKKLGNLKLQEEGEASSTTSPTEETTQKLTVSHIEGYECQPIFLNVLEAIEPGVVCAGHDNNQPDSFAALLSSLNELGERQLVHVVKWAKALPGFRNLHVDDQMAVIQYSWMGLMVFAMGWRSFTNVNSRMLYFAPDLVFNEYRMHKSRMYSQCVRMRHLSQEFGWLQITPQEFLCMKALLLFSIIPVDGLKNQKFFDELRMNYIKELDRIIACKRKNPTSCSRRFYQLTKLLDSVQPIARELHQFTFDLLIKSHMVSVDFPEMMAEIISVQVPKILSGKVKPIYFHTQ
Briefly: Androgen Receptor ELISA assay (PathScan AR ELISA) in VCaP cells: AR degradation, Dmax and DC50. It counts as cell-based. The method, then:
1. Androgen Receptor ELISA Assay.
The protocols used with VCaP cells are described below. The androgen receptor ELISA assay was performed using PathScan AR ELISA (Cell Signaling Catalog #12850) according to the following assay steps:
VCaP cells are seeded at 30,000 cells/well at a volume of 200 μL/well in VCaP assay medium [Phenol red free RPMI (Gibco Cat #11835-030); 5% Charcoal Stripped (Dextran treated) FBS (Omega Scientific, Cat #FB-04); Pen/Strep Life Technologies (Gibco Cat #: 10378-016); 0.1 nM R1881 (Sigma, Cat #R0908) is added upon the start of the assay, not during initial plating of the cells) in Corning 3904 plates. The cells are grown for a minimum of 3 days.
First, cells are dosed with compounds diluted in 0.1% DMSO—use a polypropylene plate according to the following protocol: (1)(i) make 1000× stock plate in DMSO; (ii) 20 mM stock diluted 1/6.7 with DMSO (5 μL+28.3 μL DMSO)=3 mM into row H; (iii) perform serial dilutions in ½ log doses (10 μL of PROTAC+20 μL DMSO) from row H towards row B. Reserve row A for DMSO; (iv) 7 doses total (final concentration in this 1000× plate will be 3 mM, 1 mM, 333 μM, 111 μM, etc). (2)(i) Make 10× stock plate in media; (ii) transfer 2.5 μL of the 1000× stock to a new 10× stock plate (use 12 channel pipet, start at A (DMSO control) work thru H. When 247.5 μL of media is added to this plate, it will serve as a 10× stock; (iii) make media+1 nM R1881 for making 10× stock plate; (iv) add 247.5 μL of media with 1 nM R1881 to each well of the 10× stock plate, mix.
Then 22 μL of 10× stock is added to cells and incubated for 24 h. 1× Cell Signaling Cell lysis buffer is made (Catalogue #9803; comes with the kit)—prepare for 50 μL/well. Keep on ice. Media is aspirated, and 50 μL 1× cell lysis buffer/well is added. The cells are placed on ice for 10 minutes. The solution is mixed and transferred to PCR plate, and centrifuged at 4C for 10 minutes at 4000 rpm.
5 μL is transferred to fresh plate (use immediately or freeze −80 C); 115 μL ELISA Dilutant is added (0.15 ug/ml-0.075 ug/ml; comes with the PathScan ELISA).
Add 100 μL/well AR Elisa; cover and shake, 37 C for 2 hrs; dump, tap, wash 4×200 μL ELISA wash buffer; add 100 μL/well mouse AR detection Ab; cover and shake, 37 C for 1 hr; dump, tap, wash 4×200 μL ELISA wash buffer; add 100 μL/well anti-mouse—HRP conjugated Ab (comes with the kit); cover and shake, 37 C for 30 min; allow TMB reagent to come to room temperature; dump, tap, wash 4×200 μL Elisa wash buffer; tap; add 100 μL TMB, shake 5 min—while watching color. Add the stop reagent when light blue color develops. Add 100 μL Stop solution; shake and read at 450 nm.

The mark [1] stands for this setting: read-out: VCaP DC50; VCaP cells; Table 35.
Where [2] appears, read: read-out: VCaP DC50; VCaP cells; Table 36.
[3] abbreviates: read-out: VCaP DC50; concentration that caused 50% Androgen Receptor degradation, VCaP cells (Table 32).

Where two headings read alike, the source gives them in different places. Bounds are passed on as bounds.

The Dmax is the largest share of the target that was removed. A word on the DC50: it is the concentration giving 50% degradation. On to `Cc1ncsc1-c1ccc([C@H](C)NC(=O)[C@@H]2C[C@@H](O)CN2C(=O)[C@@H](NC(=O)COc2ccc(O[C@H]3CC[C@H](Oc4ccc(N5C(=S)N(c6ccc(C#N)c(C(F)(F)F)c6)C(=O)C5(C)C)cc4)CC3)nc2)C(C)(C)C)cc1` (racemic) [Example 421], for which the greatest degradation seen (Dmax) (VCaP, read-out: VCaP Dmax (%)) fell in the range of 26 to 50%. Under setting [1], the DC50 fell in the range of 0.051 to 0.5 µM.

Regarding `Cc1nccn1-c1ccc([C@H](C)NC(=O)[C@@H]2C[C@@H](O)CN2C(=O)C(C(C)C)n2cc(OCCCOCCCCCOc3ccc(N4C(=S)N(c5ccc(C#N)c(C(F)(F)F)c5)C(=O)C4(C)C)cc3)cn2)nc1` (mixture of isomers) [Example 423], the Dmax (VCaP, read-out: VCaP Dmax (%)) was less than 25%. In addition, under setting [1], the half-maximal degradation concentration (DC50) is more than 0.501 µM.

Regarding `Cc1ncsc1-c1ccc(CNC(=O)[C@@H]2C[C@@H](O)CN2C(=O)[C@@H](C(C)C)n2cc(OCCCOCCCCCOc3ccc(N4C(=S)N(c5ccc(C#N)c(C(F)(F)F)c5)C(=O)C4(C)C)cc3)cn2)nc1` (racemic) [Example 431], the greatest degradation seen (Dmax) (VCaP, read-out: VCaP Dmax (%)) is less than 25%. Also, the 50% degradation concentration (DC50) under setting [1] is more than 0.501 µM.

As to `Cc1ncsc1-c1ccc(CNC(=O)[C@@H]2C[C@@H](O)CN2C(=O)[C@@H](C(C)C)n2cc(OCC#CC#CCOc3ccc(N4C(=S)N(c5ccc(C#N)c(C(F)(F)F)c5)C(=O)C4(C)C)cc3)cn2)cc1` (racemic) [Example 616, 1-(2-(4-((6-(4-(3-(4-cyano-3-(trifluoromethyl)phenyl)-5,5-dimethyl-4-oxo-2-thioxoimidazolidin-1-yl)phenoxy)hexa-2,4-diyn-1-yl)oxy)-1H-pyrazol-1-yl)-3-methylbutanoyl)-4-hydroxy-N-(4-(4-methylthiazol-5-yl)benzyl)pyrrolidine-2-carboxamide], the Dmax (VCaP, read-out: VCaP Dmax (%)) was less than 25%. Further, the DC50 under setting [2] is more than 0.501 µM.

Take `Cc1ncsc1-c1ccc(CNC(=O)[C@@H]2C[C@@H](O)CN2C(=O)[C@@H](NC(=O)COC(C)CCCOc2ccc(-c3ccc(N4C(=S)N(c5ccc(C#N)c(C(F)(F)F)c5)C(=O)C4(C)C)cc3)cc2)C(C)(C)C)cc1` (stereo in doubt) [Example 147, (2S,4R)-1-[(2S)-2-(2-{[(2S)-5-[4-(4-{3-[4-cyano-3-(trifluoromethyl)phenyl]-5,5-dimethyl-4-oxo-2-sulfanylideneimidazolidin-1-yl}phenyl)phenoxy]pentan-2-yl]oxy}acetamido)-3,3-dimethylbutanoyl]-4-hydroxy-N-{[4-(4-methyl-1,3-thiazol-5-yl)phenyl]methyl}pyrrolidine-2-carboxamide]: the maximal degradation (Dmax) (VCaP, read-out: VCaP Dmax (%)) is more than 71%. The 50% degradation concentration (DC50) under setting [3] is less than 0.05 µM.

On to `Cc1ncsc1-c1ccc(CNC(=O)[C@@H]2C[C@@H](O)CN2C(=O)[C@@H](NC(=O)COC(C)CCCOc2ccc(-c3ccc(N4C(=S)N(c5ccc(C#N)c(C(F)(F)F)c5)C(=O)C4(C)C)cc3)cc2)C(C)(C)C)cc1` (stereo in doubt) [Example 148, (2S,4R)-1-[(2S)-2-(2-{[(2R)-5-[4-(4-{3-[4-cyano-3-(trifluoromethyl)phenyl]-5,5-dimethyl-4-oxo-2-sulfanylideneimidazolidin-1-yl}phenyl)phenoxy]pentan-2-yl]oxy}acetamido)-3,3-dimethylbutanoyl]-4-hydroxy-N-{[4-(4-methyl-1,3-thiazol-5-yl)phenyl]methyl}pyrrolidine-2-carboxamide], for which the Dmax (VCaP, read-out: VCaP Dmax (%)) was more than 71%. Also, the DC50 under setting [3] was less than 0.05 µM.

Turning to `Cc1ncsc1-c1ccc(CNC(=O)[C@@H]2C[C@@H](O)CN2C(=O)C(C(C)C)n2cc(Oc3cccc(OCCCCCOc4ccc(N5C(=S)N(c6ccc(C#N)c(C(F)(F)F)c6)C(=O)C5(C)C)cc4)c3)cn2)cc1` (stereo in doubt) [Example 602, (2S,4R)-1-((R)-2-(4-(3-((5-(4-(3-(4-cyano-3-(trifluoromethyl)phenyl)-5,5-dimethyl-4-oxo-2-thioxoimidazolidin-1-yl)phenoxy)pentyl)oxy)phenoxy)-1H-pyrazol-1-yl)-3-methylbutanoyl)-4-hydroxy-N-(4-(4-methylthiazol-5-yl)benzyl)pyrrolidine-2-carboxamide], under setting [2], the 50% degradation concentration (DC50) is more than 0.501 µM.

For `Cc1ncsc1-c1ccc([C@H](C)NC(=O)[C@@H]2C[C@H](O)CN2C(=O)[C@@H](NC(=O)COCCN2CCN(c3ccc(C(=O)N[C@H]4C(C)(C)[C@H](Oc5ccc(C#N)c(Cl)c5)C4(C)C)cn3)CC2)C(C)(C)C)cc1` (stereo in doubt) [Example 608, N-((1r,3r)-3-(3-chloro-4-cyanophenoxy)-2,2,4,4-tetramethylcyclobutyl)-6-(4-(2-(2-(((S)-1-((2S,4R)-4-hydroxy-2-(((S)-1-(4-(4-methylthiazol-5-yl)phenyl)ethyl)carbamoyl)pyrrolidin-1-yl)-3,3-dimethyl-1-oxobutan-2-yl)amino)-2-oxoethoxy)ethyl)piperazin-1-yl)nicotinamide], where the note is “VCaP cells; Table 36; read-out: VCaP DC50”, the DC50 is less than 0.05 µM. Further, the greatest degradation seen (Dmax) (VCaP, VCaP cells; Table 36; read-out: VCaP Dmax (%)) is more than 71%.

In the case of `Cc1nccn1-c1ccc([C@H](C)NC(=O)[C@@H]2C[C@@H](O)CN2C(=O)C(C(C)C)n2cc(OCCCOCCCCCOc3ccc(N4C(=S)N(c5ccc(C#N)c(C(F)(F)F)c5)C(=O)C4(C)C)cc3)cn2)cc1` (stereo in doubt) [Example 612, (2S,4R)-1-((R)-2-(4-(3-((5-(4-(3-(4-cyano-3-(trifluoromethyl)phenyl)-5,5-dimethyl-4-oxo-2-thioxoimidazolidin-1-yl)phenoxy)pentyl)oxy)propoxy)-1H-pyrazol-1-yl)-3-methylbutanoyl)-4-hydroxy-N-((S)-1-(4-(2-methyl-1H-imidazol-1-yl)phenyl)ethyl)pyrrolidine-2-carboxamide], for the setting “VCaP cells; Table 36”, the “VCaP Dmax (%)” value is recorded as “_+”. Also, under setting [2], the half-maximal degradation concentration (DC50) was more than 0.501 µM.

`Cc1ncsc1-c1ccc(CNC(=O)[C@@H]2C[C@@H](O)CN2C(=O)[C@@H](NC(=O)COCCCOCCC(O)CCOc2ccc(N3C(=S)N(c4ccc(C#N)c(C(F)(F)F)c4)C(=O)C3(C)C)cc2)C(C)(C)C)cc1` (stereo partly drawn) [Example 13, (2S,4R)-1-[(2S)-2-[2-(3-{[5-(4-{3-[4-cyano-3-(trifluoromethyl)phenyl]-5,5-dimethyl-4-oxo-2-sulfanylideneimidazolidin-1-yl}phenoxy)-3-hydroxypentyl]oxy}propoxy)acetamido]-3,3-dimethylbutanoyl]-4-hydroxy-N-{[4-(4-methyl-1,3-thiazol-5-yl)phenyl]methyl}pyrrolidine-2-carboxamide]: the Dmax (VCaP, read-out: VCaP Dmax (%)) fell in the range of 26 to 50%. For the same molecule, the DC50 (read-out: VCaP DC50; concentration that caused 50% Androgen Receptor degradation, VCaP cells) was less than 0.05 µM.

These data come from US11427548B2 (Arvinas Operations, Inc., priority 2015, dated 2022).
